Experimental data published in ChEMBL document CHEMBL4507320, “Data for DCP probe NVS-MALT1” (2021).

Experiments:
[1] = molecular target: Cathepsin G (Homo sapiens) (UniProt P08311); test: Cathepsin G (h) Protease assay; details: Compound concentration 10.0 uM
[2] = molecular target: Insulin receptor (Homo sapiens) (UniProt P06213); details: Compound concentration 1000.0 nM
[3] = tested on: Tyrosine-protein kinase ABL1 (Homo sapiens), P00519 [F317L]; details: Compound concentration 1000.0 nM
[4] = tested on: Fibroblast growth factor receptor 3 (Homo sapiens), P22607 [G697C]; details: Compound concentration 1000.0 nM
Chain of Fibroblast growth factor receptor 3 (Homo sapiens), P22607 [G697C] (P22607 whole entry G697C): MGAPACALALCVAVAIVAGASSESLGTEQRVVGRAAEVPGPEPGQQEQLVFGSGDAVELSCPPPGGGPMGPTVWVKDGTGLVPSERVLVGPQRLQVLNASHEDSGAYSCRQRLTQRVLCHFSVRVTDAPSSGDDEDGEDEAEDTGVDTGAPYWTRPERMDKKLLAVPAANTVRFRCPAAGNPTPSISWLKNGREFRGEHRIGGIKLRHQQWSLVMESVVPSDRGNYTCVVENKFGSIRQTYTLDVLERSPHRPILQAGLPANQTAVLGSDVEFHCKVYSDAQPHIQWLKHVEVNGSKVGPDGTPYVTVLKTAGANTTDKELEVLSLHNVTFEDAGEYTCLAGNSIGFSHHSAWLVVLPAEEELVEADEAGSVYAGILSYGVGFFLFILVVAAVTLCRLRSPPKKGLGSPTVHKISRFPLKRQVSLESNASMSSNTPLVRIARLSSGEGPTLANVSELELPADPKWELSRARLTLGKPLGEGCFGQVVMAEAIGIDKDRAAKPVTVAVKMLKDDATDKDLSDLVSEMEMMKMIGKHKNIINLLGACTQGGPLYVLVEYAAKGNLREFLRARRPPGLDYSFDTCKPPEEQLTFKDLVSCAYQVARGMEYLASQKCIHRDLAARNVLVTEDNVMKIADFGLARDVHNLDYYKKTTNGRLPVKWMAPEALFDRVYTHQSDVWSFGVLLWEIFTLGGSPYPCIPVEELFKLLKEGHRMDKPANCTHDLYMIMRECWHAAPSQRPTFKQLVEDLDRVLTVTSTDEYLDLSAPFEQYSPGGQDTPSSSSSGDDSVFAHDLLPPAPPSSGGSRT

[5] = molecular target: Serine/threonine-protein kinase tousled-like 1 (Homo sapiens) (UniProt Q9UKI8); details: Compound concentration 1000.0 nM
Chain of Serine/threonine-protein kinase tousled-like 1 (Homo sapiens) (Q9UKI8 whole entry): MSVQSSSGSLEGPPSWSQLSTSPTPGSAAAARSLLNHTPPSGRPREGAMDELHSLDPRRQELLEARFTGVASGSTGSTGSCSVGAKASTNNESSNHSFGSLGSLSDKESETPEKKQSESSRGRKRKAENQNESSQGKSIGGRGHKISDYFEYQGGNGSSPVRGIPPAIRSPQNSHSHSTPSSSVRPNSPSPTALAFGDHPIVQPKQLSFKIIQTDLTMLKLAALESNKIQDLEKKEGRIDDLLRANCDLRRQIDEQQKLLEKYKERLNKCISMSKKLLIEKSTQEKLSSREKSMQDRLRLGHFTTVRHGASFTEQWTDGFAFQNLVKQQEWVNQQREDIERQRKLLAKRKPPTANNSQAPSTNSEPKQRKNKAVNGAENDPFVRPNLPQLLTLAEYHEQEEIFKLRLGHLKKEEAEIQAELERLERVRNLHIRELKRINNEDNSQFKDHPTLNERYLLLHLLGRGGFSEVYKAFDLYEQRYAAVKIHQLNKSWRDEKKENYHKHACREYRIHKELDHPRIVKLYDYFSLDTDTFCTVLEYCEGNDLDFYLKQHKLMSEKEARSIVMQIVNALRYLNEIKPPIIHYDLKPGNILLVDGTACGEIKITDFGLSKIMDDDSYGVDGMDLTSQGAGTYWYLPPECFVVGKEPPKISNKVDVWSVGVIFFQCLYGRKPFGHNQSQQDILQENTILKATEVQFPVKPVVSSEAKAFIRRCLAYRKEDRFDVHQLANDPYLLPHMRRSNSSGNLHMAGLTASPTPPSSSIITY

[6] = molecular target: Tyrosine-protein kinase Lyn (Homo sapiens) (UniProt P07948); details: Compound concentration 1000.0 nM
[7] = molecular target: Phosphatidylinositol 4-phosphate 3-kinase C2 domain-containing subunit beta (Homo sapiens) (UniProt O00750); details: Compound concentration 1000.0 nM
[8] = molecular target: Serine/threonine-protein kinase ULK1 (Homo sapiens) (UniProt O75385); details: Compound concentration 1000.0 nM
[9] = molecular target: Serine/threonine-protein kinase PAK 3 (Homo sapiens) (UniProt O75914); details: Compound concentration 1000.0 nM
[10] = molecular target: Ribosomal protein S6 kinase alpha-4 (Homo sapiens) (UniProt O75676); details: Compound concentration 1000.0 nM
[11] = molecular target: Uncharacterized serine/threonine-protein kinase SBK3 (Homo sapiens) (UniProt P0C264); details: Compound concentration 1000.0 nM
[12] = molecular target: Serine/threonine-protein kinase Nek6 (Homo sapiens) (UniProt Q9HC98); details: Compound concentration 1000.0 nM
[13] = molecular target: Serine/threonine-protein kinase PAK 6 (Homo sapiens) (UniProt Q9NQU5); details: Compound concentration 1000.0 nM
Chain of Serine/threonine-protein kinase PAK 6 (Homo sapiens) (Q9NQU5 whole entry, looked up): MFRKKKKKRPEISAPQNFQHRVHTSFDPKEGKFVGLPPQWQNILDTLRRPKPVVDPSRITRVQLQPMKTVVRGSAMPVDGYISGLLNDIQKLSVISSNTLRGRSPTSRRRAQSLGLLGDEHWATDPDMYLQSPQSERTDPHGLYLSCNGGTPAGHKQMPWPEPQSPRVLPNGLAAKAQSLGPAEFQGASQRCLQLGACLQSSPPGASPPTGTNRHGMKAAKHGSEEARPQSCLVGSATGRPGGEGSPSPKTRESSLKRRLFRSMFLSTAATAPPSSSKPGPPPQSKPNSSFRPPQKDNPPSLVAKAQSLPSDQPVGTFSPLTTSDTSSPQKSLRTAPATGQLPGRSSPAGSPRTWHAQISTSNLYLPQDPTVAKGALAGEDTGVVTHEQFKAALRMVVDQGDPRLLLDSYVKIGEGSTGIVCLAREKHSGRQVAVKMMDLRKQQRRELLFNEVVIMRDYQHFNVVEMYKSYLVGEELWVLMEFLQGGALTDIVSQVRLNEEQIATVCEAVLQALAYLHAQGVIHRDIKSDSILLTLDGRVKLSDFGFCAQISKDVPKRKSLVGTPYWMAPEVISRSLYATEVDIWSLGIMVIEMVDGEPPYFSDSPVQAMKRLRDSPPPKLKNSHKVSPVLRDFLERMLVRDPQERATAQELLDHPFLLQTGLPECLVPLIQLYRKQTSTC

Caspase-3 (Homo sapiens) = Caspase-3 (Homo sapiens) (UniProt P42574); test: Caspase 3 (h) Protease assay; details: Compound concentration 10.0 uM
[14] = molecular target: Cathepsin D (Homo sapiens) (UniProt P07339); test: Cathepsin D (h) Protease assay; details: Compound concentration 10.0 uM
[15] = molecular target: Beta-1 adrenergic receptor (Homo sapiens) (UniProt P08588); details: Compound concentration 10.0 uM
[16] = molecular target: Dual specificity protein kinase TTK (Homo sapiens) (UniProt P33981); details: Compound concentration 1000.0 nM
[17] = molecular target: SRSF protein kinase 2 (Homo sapiens) (UniProt P78362); details: Compound concentration 1000.0 nM
[18] = molecular target: Focal adhesion kinase 1 (Homo sapiens) (UniProt Q05397); details: Compound concentration 1000.0 nM
Chain of Focal adhesion kinase 1 (Homo sapiens) (Q05397 2-1052 limits assumed): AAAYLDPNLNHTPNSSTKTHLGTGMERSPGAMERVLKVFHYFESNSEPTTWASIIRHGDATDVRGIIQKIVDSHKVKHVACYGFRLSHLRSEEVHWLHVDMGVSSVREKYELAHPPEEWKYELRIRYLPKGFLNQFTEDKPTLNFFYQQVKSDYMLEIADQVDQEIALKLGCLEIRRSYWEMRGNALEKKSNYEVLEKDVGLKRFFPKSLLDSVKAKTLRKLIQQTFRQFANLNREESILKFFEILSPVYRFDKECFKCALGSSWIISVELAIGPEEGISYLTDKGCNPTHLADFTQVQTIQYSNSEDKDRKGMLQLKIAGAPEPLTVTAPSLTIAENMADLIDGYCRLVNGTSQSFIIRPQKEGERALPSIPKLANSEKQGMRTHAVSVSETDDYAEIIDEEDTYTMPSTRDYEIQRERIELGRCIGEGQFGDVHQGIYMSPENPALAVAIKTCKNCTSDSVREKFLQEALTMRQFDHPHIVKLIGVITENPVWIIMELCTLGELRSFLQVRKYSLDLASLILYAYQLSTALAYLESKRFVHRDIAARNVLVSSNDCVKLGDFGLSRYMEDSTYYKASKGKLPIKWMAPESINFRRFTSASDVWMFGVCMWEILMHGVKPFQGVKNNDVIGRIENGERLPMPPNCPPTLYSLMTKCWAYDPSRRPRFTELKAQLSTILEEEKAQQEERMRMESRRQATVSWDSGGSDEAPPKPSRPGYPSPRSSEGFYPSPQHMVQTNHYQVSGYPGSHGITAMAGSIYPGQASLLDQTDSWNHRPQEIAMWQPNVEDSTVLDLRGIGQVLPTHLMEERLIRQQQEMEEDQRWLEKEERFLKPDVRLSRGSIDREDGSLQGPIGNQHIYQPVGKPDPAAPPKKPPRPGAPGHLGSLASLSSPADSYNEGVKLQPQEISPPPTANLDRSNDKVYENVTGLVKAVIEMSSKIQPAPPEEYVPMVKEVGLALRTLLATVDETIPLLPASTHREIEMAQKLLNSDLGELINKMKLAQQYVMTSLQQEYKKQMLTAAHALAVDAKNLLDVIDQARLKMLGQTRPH

[19] = molecular target: 5-hydroxytryptamine receptor 1B (Homo sapiens) (UniProt P28222); details: Compound concentration 10.0 uM
[20] = molecular target: RAC-beta serine/threonine-protein kinase (Homo sapiens) (UniProt P31751); details: Compound concentration 1000.0 nM
[21] = molecular target: Receptor-interacting serine/threonine-protein kinase 4 (Homo sapiens) (UniProt P57078); details: Compound concentration 1000.0 nM
[22] = molecular target: Activin receptor type-1B (Homo sapiens) (UniProt P36896); details: Compound concentration 1000.0 nM
[23] = molecular target: Tyrosine-protein kinase JAK3 (Homo sapiens) (UniProt P52333); details: Compound concentration 1000.0 nM
[24] = molecular target: RAF proto-oncogene serine/threonine-protein kinase (Homo sapiens) (UniProt P04049); details: Compound concentration 1000.0 nM
[25] = molecular target: Ribosomal protein S6 kinase alpha-2 (Homo sapiens) (UniProt Q15349); details: Compound concentration 1000.0 nM
[26] = molecular target: Beta-3 adrenergic receptor (Homo sapiens) (UniProt P13945); details: Compound concentration 10.0 uM
[27] = molecular target: Casein kinase I isoform gamma-3 (Homo sapiens) (UniProt Q9Y6M4); details: Compound concentration 1000.0 nM
[28] = molecular target: Histamine H3 receptor (Homo sapiens) (UniProt Q9Y5N1); details: Compound concentration 10.0 uM
[29] = molecular target: Cyclin-dependent kinase 4 (Homo sapiens) (UniProt P11802); details: Compound concentration 1000.0 nM
Chain of Cyclin-dependent kinase 4 (Homo sapiens) (P11802 whole entry): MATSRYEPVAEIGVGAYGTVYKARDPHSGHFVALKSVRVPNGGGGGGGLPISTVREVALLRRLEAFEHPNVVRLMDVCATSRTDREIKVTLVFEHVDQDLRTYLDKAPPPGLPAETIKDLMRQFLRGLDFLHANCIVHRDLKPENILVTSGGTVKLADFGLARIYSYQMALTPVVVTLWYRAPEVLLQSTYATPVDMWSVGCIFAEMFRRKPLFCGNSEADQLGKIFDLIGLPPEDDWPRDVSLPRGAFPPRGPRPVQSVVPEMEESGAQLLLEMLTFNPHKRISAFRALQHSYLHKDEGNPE

[30] = molecular target: Myosin-IIIb (Homo sapiens) (UniProt Q8WXR4); details: Compound concentration 1000.0 nM
Chain of Myosin-IIIb (Homo sapiens) (Q8WXR4 whole entry): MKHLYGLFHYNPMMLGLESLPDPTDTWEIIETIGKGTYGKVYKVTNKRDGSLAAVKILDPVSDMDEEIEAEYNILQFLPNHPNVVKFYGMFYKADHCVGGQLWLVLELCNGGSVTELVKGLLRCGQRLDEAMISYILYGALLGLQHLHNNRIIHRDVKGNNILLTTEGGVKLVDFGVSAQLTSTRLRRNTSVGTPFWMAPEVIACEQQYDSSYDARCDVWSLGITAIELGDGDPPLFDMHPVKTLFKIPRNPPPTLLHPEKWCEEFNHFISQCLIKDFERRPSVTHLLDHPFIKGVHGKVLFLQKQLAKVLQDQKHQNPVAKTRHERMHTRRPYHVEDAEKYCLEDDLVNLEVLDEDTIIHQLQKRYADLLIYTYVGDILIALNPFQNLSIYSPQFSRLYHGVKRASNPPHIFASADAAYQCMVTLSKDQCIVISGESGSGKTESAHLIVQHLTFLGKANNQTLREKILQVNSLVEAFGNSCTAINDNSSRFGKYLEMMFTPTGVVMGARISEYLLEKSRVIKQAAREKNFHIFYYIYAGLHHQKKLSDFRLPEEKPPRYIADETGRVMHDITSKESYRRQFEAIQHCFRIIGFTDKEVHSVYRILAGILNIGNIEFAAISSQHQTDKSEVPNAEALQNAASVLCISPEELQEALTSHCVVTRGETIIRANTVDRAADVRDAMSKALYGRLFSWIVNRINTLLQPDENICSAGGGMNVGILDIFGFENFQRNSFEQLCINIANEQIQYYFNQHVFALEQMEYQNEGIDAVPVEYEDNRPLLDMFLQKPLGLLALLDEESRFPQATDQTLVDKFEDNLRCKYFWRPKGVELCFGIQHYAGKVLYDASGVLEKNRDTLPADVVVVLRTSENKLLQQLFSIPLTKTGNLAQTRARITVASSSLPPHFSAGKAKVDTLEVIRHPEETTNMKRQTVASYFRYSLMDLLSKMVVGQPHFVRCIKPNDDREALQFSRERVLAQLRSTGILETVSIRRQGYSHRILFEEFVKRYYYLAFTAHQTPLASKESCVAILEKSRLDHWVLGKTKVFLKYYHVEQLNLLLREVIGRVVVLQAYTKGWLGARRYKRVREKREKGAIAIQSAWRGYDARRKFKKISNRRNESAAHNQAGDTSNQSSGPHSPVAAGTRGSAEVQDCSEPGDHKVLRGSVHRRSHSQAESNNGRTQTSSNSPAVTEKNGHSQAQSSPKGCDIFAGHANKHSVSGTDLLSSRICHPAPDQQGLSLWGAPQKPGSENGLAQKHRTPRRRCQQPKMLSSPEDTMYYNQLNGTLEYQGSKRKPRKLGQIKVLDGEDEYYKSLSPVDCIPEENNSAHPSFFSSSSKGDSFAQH

[31] = molecular target: Rho-associated protein kinase 1 (Homo sapiens) (UniProt Q13464); details: Compound concentration 1000.0 nM
[32] = molecular target: Serine/threonine-protein kinase B-raf (Homo sapiens) (UniProt P15056); details: Compound concentration 1000.0 nM
[33] = tested on: Hepatocyte growth factor receptor (Homo sapiens), P08581 [M1250T]; details: Compound concentration 1000.0 nM
[34] = molecular target: Mitogen-activated protein kinase 1 (Homo sapiens) (UniProt P28482); details: Compound concentration 1000.0 nM
[35] = molecular target: Serine/threonine-protein kinase BRSK2 (Homo sapiens) (UniProt Q8IWQ3); details: Compound concentration 1000.0 nM
[36] = molecular target: 5-hydroxytryptamine receptor 7 (Homo sapiens, UniProt P34969); test: GPCRScan assay: inhibition of 5-HT7A; parameters: radioligand conc. used [nm] 5.0 – 6.0, parental cells Stable HEK

| SMILES | residual activity [2] [%] | residual activity [3] [%] | residual activity [4] [%] | residual activity [5] [%] | residual activity [6] [%] | residual activity [7] [%] | residual activity [8] [%] | residual activity [9] [%] | residual activity [10] [%] | residual activity [11] [%] | residual activity [12] [%] | residual activity [13] [%] | residual activity [16] [%] | residual activity [17] [%] | residual activity [18] [%] | inhibition [19] [%] | residual activity [20] [%] | residual activity [21] [%] | residual activity [22] [%] | residual activity [23] [%] | other results |
| --- | --- | --- | --- | --- | --- | --- | --- | --- | --- | --- | --- | --- | --- | --- | --- | --- | --- | --- | --- | --- | --- |
| CO[C@@H](C)c1c(Nc2ccc([C@H](N(C)C(=O)C3CCS(=O)(=O)CC3)C(F)(F)F)cc2)cnc2cc(Cl)nn12 [NVS-MALT1] | 87 | 100 | 86 | 100 | 77 | 97 | 100 | 100 | 86 | 84 | 97 | 100 | 77 | 100 | 85 | 12.5 | 99 | 76 | 72 | 99 | inhibition [1]: 7%; inhibition (Caspase-3 (Homo sapiens)): -1%; inhibition [14]: 0%; inhibition [15]: 20.6%; residual activity [24]: 97%; residual activity [25]: 79%; inhibition [26]: 15.4%; residual activity [27]: 72%; inhibition [28]: -5.74%; residual activity [29]: 100%; residual activity [30]: 82%; residual activity [31]: 100%; residual activity [32]: 85%; residual activity [33]: 92%; residual activity [34]: 100%; residual activity [35]: 79% |
| CO[C@@H](C)c1c(Nc2ccc([C@@H](N(C)C(=O)C3CCS(=O)(=O)CC3)C(F)(F)F)cc2)cnc2cc(Cl)nn12 [NVS-MALT1-C] | 95 | 100 | 84 | 100 | 97 | 89 | 100 | 100 | 94 | 81 | 100 | 100 | 100 | 99 | 90 | 11.4 | 91 | 100 | 100 | 98 | Ki [36]: 10 µM; residual activity [24]: 100%; residual activity [25]: 89%; inhibition [26]: 12.9%; residual activity [27]: 71%; residual activity [29]: 100%; residual activity [30]: 100%; residual activity [31]: 100%; residual activity [32]: 76%; residual activity [33]: 100%; residual activity [34]: 100%; residual activity [35]: 90% |
